Legend:
[1] = Dynamic Vapor Sorption (DVS) study; type: physicochemical
Description: Some of the compounds prepared were analyzed using Dynamic Vapor Sorption (DVS). Typical DVS conditions are as follows: SGA-100 Symmetric Vapor Sorption Analyzer from VTI Corporation. The moisture uptake profile was completed in four cycles in 10% relative humidity (RH) increments with the first adsorption from 25% to 95% RH, followed by desorption in 10% increments from 95% to 5% RH. The equilibration criteria were 0.0050 wt % in 5 minutes with a maximum equilibration time of 180 minutes; Data logging interval: 2.00 min or 0.0100 wt %. All adsorption and desorption were performed at room temperature (25° C.). No pre-drying step was applied.
A Dynamic Vapor Sorption (DVS) study was conducted on the compound of Example 9 to monitor the hydroscopicity, hydrate formation and dehydration, as well as solid form transformation. The moisture uptake profile was completed in four cycles in 10% relative humidity (RH) increments with the first adsorption from 25% to 95% RH, followed by desorption in 10% increments from 95% to 5% RH. The equilibration criteria were as follows: 0.0050 wt % in 5 minutes with a maximum equilibration time of 180 minutes. All adsorption and desorption were performed at room temperature (25° C.). No pre-drying step was applied for the sample.

Humidity Chamber Study A = type: physicochemical; settings: 40° C., 75% relative humidity, 5 days
Description: Temperature: 40° C.; Relative humidity: 75%; Time: 5 days.
The compound of Example 9 was placed in a humidity chamber set at 40° C. and 75% relative humidity for 5 days.

Humidity Chamber Study B = type: physicochemical; settings: 30° C., 90% relative humidity, 7 days
Description: Temperature: 30° C.; Relative humidity: 90%; Time: 7 days.
The compound of Example 9 was placed in a humidity chamber set at 30° C. and 90% relative humidity (RH) for 7 days. […] The XRPD patterns of the 30° C./90% RH sample corresponded to the hydrate form obtained from an aqueous suspension of the anhydrous crystalline free base drug substance.

[2] = biological target: T1, human JAK1 (a.a. 837-1142) (Homo sapiens, UniProt P23458); assay: In vitro JAK kinase assay (HTRF), JAK1; type: biochemical; settings: 1 mM ATP
T1 construct: The catalytic domains of human JAK1 (a.a. 837-1142); made in house; host or cells: insect cells (baculovirus)
Description: (§1) Compounds herein were tested for inhibitory activity of JAK targets according to the following in vitro assay described in Park et al., Analytical Biochemistry 1999, 269, 94-104. The catalytic domains of human JAK1 (a.a. 837-1142), JAK2 (a.a. 828-1132) and JAK3 (a.a. 781-1124) were expressed using baculovirus in insect cells and purified. The catalytic activity of JAK1, JAK2 or JAK3 was assayed by measuring the phosphorylation of a biotinylated peptide. The phosphorylated peptide was detected by homogenous time resolved fluorescence (HTRF). IC50s of compounds were measured for each kinase in the 40 μL, reactions that contain the enzyme, ATP and 500 nM peptide in 50 mM Tris (pH 7.8) buffer with 100 mM NaCl, 5 mM DTT, and 0.1 mg/mL (0.01%) BSA. For the 1 mM IC50 measurements, ATP concentration in the reactions was 1 mM. Reactions were carried out at room temperature for 1 hour and then stopped with 20 μL 45 mM EDTA, 300 nM SA-APC, 6 nM Eu-Py20 in assay buffer (Perkin Elmer, Boston, Mass.). Binding to the Europium labeled antibody took place for 40 minutes and HTRF signal was measured on a PHERAi star plate reader (BMG, Cary, N.C.).

[3] = test system: human JAK1 (a.a. 837-1142); assay: In vitro JAK kinase assay (HTRF), JAK1; type: biochemical
Description: as §1

[4] = biological target: T2, human JAK2 (a.a. 828-1132) (Homo sapiens, UniProt O60674); assay: In vitro JAK kinase assay (HTRF), JAK2; type: biochemical; settings: 1 mM ATP
T2 construct: JAK2 (a.a. 828-1132); made in house; host or cells: insect cells (baculovirus)
Description: as §1

T2 sequence (O60674 828-1132): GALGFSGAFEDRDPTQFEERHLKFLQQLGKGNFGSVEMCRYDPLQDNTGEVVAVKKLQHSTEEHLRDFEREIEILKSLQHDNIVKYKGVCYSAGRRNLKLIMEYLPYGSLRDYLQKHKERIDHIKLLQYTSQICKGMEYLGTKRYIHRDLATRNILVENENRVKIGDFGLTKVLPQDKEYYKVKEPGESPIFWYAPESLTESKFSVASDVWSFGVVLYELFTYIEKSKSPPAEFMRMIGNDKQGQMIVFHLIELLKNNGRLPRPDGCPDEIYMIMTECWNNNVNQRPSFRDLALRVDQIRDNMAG
T1 sequence (P23458 849-1154): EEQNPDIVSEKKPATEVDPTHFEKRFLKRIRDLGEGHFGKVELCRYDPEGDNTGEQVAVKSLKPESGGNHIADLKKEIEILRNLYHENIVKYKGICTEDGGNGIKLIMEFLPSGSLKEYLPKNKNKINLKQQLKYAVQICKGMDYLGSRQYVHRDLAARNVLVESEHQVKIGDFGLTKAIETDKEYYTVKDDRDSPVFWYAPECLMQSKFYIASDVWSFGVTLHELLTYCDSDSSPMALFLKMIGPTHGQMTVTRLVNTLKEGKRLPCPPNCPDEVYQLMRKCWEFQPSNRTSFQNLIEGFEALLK

## C[C@@H](O)c1nc2cnc3ccsc3c2n1[C@H]1CC[C@H](CC#N)OC1 [Example 9, 2-((2R,5S)-5-(2-((R)-1-hydroxyethyl)-1H-imidazo[4,5-d]thieno[3,2-b]pyridin-1-yl)tetrahydro-2H-pyran-2-yl)acetonitrile]
[1]; DVS, 25° C., four cycles, 5% to 95% RH
  Water absorption of the anhydrous form: slow below 85% RH and fast above 85% RH
[1]; DVS, 25° C., XRPD before and after
  Solid form after DVS cycle 4: fully converted to the hydrate form
[1]; ambient storage
  Behaviour under ambient storage conditions: slowly absorb water and convert to hydrate form
Humidity Chamber Study A
  Solid form by XRPD after humidity chamber: converted to the crystalline hydrate form
  Water content by KF after humidity chamber: 4.6%
  Weight loss observed by TGA after humidity chamber: 5.01%
Humidity Chamber Study B
  Solid form by XRPD after humidity chamber: converted to the crystalline hydrate form
  Water content by KF after humidity chamber: 4.72%
  Weight loss observed by TGA after humidity chamber: 5.05%

## C[C@@H](O)c1nc2cnc3ccsc3c2n1[C@H]1CC[C@H](CC#N)OC1 [Example 10, 2-((2R,5S)-5-(2-((R)-1-hydroxyethyl)-1H-imidazo[4,5-d]thieno[3,2-b]pyridin-1-yl)tetrahydro-2H-pyran-2-yl)acetonitrile monohydrate]
[1]; DVS desorption, 25° C.
  Dehydration process from the hydrate to the anhydrous form: very slow, even at 5% RH
[1]; DVS, 25° C.
  Physical stability to humidity: physically stable in a wide range of humidity conditions

## C[C@@H](O)c1nc2cnc3ccsc3c2n1[C@H]1CC[C@H](CC#N)OC1 [Formula Ia, 2-((2R,5S)-5-(2-((R)-1-hydroxyethyl)-1H-imidazo[4,5-d]thieno[3,2-b]pyridin-1-yl)tetrahydro-2H-pyran-2-yl)acetonitrile]
[2]
  IC50: ≤ 100 nM
[3]; 1 mM ATP, ratio of IC50s
  JAK2/JAK1 ratio: > 10
[3]; general statement of selectivity for JAK1 over JAK2
  JAK2/JAK1 IC50 ratio: > 10
[4]
  IC50: ≤ 1000 nM
